Laboratory results taken from US20090143396A1, “Sulfonyl-Substituted Aryl Compounds as Modulators of Peroxisome Proliferator Activated Receptors” (priority 2005, published 2009).

Legend:
Assay type in all cases: cell-based, murine and human
Details in all cases: GAL4 chimeric receptor, 20-24 hours treatment
PPAR-gamma = biological target: T1, PPAR-gamma (UniProt P37231); experiment: Transient transfection transactivation assay in CV-1 cells, GAL4-PPAR-gamma LBD chimera, luciferase reporter
T1 sequence (P37231 1-505): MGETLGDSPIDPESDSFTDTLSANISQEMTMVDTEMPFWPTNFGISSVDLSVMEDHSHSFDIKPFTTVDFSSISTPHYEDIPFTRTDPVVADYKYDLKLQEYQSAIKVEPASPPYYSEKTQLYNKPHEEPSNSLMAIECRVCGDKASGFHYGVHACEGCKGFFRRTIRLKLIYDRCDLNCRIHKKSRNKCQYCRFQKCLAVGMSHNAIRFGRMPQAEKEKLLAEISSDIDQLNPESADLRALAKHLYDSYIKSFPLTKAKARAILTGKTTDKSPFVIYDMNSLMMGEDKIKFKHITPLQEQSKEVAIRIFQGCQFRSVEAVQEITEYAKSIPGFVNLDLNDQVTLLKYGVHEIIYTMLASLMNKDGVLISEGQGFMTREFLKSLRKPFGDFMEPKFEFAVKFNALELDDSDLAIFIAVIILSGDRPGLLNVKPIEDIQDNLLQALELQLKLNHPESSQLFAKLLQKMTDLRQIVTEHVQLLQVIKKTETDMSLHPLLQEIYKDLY
Description: (§1) Compounds may be screened for functional potency in transient transfection assays in CV-1 cells for their ability to activate the PPAR subtypes (transactivation assay). A previously established chimeric receptor system was utilized to allow comparison of the relative transcriptional activity of the receptor subtypes on the same synthetic response element and to prevent endogenous receptor activation from complicating the interpretation of results. See, for example, Lehmann, J. M.; Moore, L. B.; Smith-Oliver, T. A; Wilkinson, W. O.; Willson, T. M.; Kliewer, S. A., An antidiabetic thiazolidinedione is a high affinity ligand for peroxisome proliferator-activated receptor […], J. Biol. Chem., 1995, 270, 12953-6. The ligand binding domains for murine and human PPAR-alpha, PPAR-gamma, and PPAR-delta are each fused to the yeast transcription factor GAL4 DNA binding domain. CV-1 cells were transiently transfected with expression vectors for the respective PPAR chimera along with a reporter construct containing four or five copies of the GAL4 DNA binding site driving expression of luciferase. After 8-16 h, the cells are replated into multi-well assay plates and the media is exchanged to phenol-red free DME medium supplemented with 5% delipidated calf serum. 4 hours after replating, cells were treated with either compounds or 1% DMSO for 20-24 hours. Luciferase activity was then assayed with Britelite (Perkin Elmer) following the manufacturer's protocol and measured with either the Perl in Elmer Viewlux or Molecular Devices Acquest (see, for example, Kliewer, S. A., et. al. Cell 1995, 83, 813-819). Rosiglitazone is used as a positive control in the […] assay. Wy-14643 and GW7647 is used as a positive control in the […] assay. GW501516 is used as the positive control in the PPARδ assay.
(§2) Compounds of Examples 1-10 were assayed to measure their biological activity with respect to their EC50 values and efficacy for modulating PPAR-alpha, PPAR-gamma, and PPAR-delta as set forth in Table 1.

PPAR-alpha = biological target: T2, PPAR-alpha (UniProt Q07869); experiment: Transient transfection transactivation assay in CV-1 cells, GAL4-PPAR-alpha LBD chimera, luciferase reporter
T2 sequence (Q07869 1-468): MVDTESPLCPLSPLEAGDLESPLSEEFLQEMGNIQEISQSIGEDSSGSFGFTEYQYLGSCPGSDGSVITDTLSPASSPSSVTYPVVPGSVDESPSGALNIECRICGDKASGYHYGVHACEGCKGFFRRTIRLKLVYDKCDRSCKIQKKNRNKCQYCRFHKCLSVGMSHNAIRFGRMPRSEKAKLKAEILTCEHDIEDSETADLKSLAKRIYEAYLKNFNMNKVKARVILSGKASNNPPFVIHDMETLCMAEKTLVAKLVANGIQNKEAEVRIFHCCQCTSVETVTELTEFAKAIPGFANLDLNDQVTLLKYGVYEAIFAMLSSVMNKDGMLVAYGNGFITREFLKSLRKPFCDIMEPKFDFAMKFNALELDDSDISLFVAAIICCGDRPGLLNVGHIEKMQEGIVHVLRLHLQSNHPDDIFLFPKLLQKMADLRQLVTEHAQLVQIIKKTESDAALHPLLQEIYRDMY
Description: as §1, §2

PPAR-delta = biological target: T3, PPAR-delta (UniProt Q03181); experiment: Transient transfection transactivation assay in CV-1 cells, GAL4-PPAR-delta LBD chimera, luciferase reporter
T3 sequence (Q03181 1-441): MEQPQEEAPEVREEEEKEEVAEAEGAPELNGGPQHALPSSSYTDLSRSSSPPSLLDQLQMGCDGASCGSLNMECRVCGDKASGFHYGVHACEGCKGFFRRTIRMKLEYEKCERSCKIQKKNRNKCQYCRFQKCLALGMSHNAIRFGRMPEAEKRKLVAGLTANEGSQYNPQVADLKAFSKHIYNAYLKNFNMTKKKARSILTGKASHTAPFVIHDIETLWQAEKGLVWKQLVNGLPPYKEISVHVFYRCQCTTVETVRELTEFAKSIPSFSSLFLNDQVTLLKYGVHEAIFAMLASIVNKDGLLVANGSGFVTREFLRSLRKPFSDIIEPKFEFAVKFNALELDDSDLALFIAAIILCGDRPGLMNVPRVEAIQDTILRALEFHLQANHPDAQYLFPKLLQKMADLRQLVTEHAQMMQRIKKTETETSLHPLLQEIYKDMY
Description: as §1, §2

Row | EC50 (PPAR-gamma) [µM] | EC50 (PPAR-alpha) [µM] | EC50 (PPAR-delta) [µM] | Structure (SMILES)
1 | 5 to 100 | < 5 | < 5 | Cc1ccc(S(=O)(=O)N2[C@H](C)CN(Cc3ccc(C(F)(F)F)cc3)C[C@@H]2C)cc1CC(=O)O [Example 2, {5-[2,6-Dimethyl-4-(4-trifluoromethyl-benzyl)-piperazine-1-sulfonyl]-2-methyl-phenyl}-acetic acid]
2 | < 5 | < 5 | < 5 | Cc1ccc(S(=O)(=O)N2CCN(Cc3ccc(OC(F)(F)F)cc3)CC2)cc1CC(=O)O [Example 3, {2-Methyl-5-[4-(4-trifluoromethoxy-benzyl)-piperazine-1-sulfonyl]-phenyl}-acetic acid]
3 | > 100 | < 5 | < 5 | Cc1ccc(S(=O)(=O)N2[C@H](C)CN(Cc3ccc(Cl)c(Cl)c3)C[C@@H]2C)cc1CC(=O)O [Example 7, {5-[4-(3,4-Dichloro-benzyl)-2,6-dimethyl-piperazine-1-sulfonyl]-2-methyl-phenyl}-acetic acid]
4 | < 5 | < 5 | < 5 | Cc1ccc(S(=O)(=O)N2CCN(Cc3ccc(C(F)(F)F)cc3)CC2)cc1CC(=O)O [Example 4, {2-Methyl-5-[4-(4-trifluoromethyl-benzyl)-piperazine-1-sulfonyl]-phenyl}-acetic acid]
5 | > 100 | < 5 | < 5 | Cc1ccc(S(=O)(=O)N2[C@H](C)CN(Cc3ccc(OC(F)(F)F)cc3)C[C@@H]2C)cc1CC(=O)O [Example 1, {5-[2,6-Dimethyl-4-(4-trifluoromethoxy-benzyl)-piperazine-1-sulfonyl]-2-methyl-phenyl}-acetic acid]
6 | < 5 | 5 to 100 | < 5 | C[C@@H]1CN(Cc2ccc(OC(F)(F)F)cc2)C[C@H](C)N1S(=O)(=O)c1cccc(CC(=O)O)c1 [Example 6, {3-[2,6-Dimethyl-4-(4-trifluoromethoxy-benzyl)-piperazine-1-sulfonyl]-phenyl}-acetic acid]
7 | > 100 | 5 to 100 | < 5 | Cc1cc(CC(=O)O)cc(S(=O)(=O)N2[C@H](C)CN(Cc3ccc(OC(F)(F)F)cc3)C[C@@H]2C)c1 [Example 5, {3-[2,6-Dimethyl-4-(4-trifluoromethoxy-benzyl)-piperazine-1-sulfonyl]-5-methyl-phenyl}-acetic acid]
8 | > 100 | > 100 | < 5 | Cc1ccc(S(=O)(=O)N2[C@H](C)CN(C(=O)Cc3ccc(OC(F)(F)F)cc3)C[C@@H]2C)cc1CC(=O)O [Example 10, 2-(5-((2R,6S)-2,6-dimethyl-4-(2-(4-(trifluoromethoxy)phenyl)acetyl)piperazin-1-ylsulfonyl)-2-methylphenyl)acetic acid]
9 | < 5 | < 5 | < 5 | C#Cc1cc(CC(=O)O)cc(S(=O)(=O)N2CCN(Cc3ccc(OC(F)(F)F)cc3)CC2)c1 [Example 8, 2-{3-Ethynyl-5-[-4-(4-trifluoromethoxybenzyl)piperazine-1-ylsulfonyl]phenyl}acetic acid]
10 | < 5 | < 5 | < 5 | C#Cc1cc(CC(=O)O)cc(S(=O)(=O)N2CCN(Cc3cccc(OC(F)(F)F)c3)CC2)c1 [Example 9, 2-{3-Ethynyl-5-[4-(3-trifluoromethoxybenzyl)piperazine-1-ylsulfonyl]phenyl}acetic acid]
